According to publication PMC11150212, “Synthesis and evaluation of [^18F]FBNAF, a STAT3-targeting probe, for PET imaging of tumor microenvironment” (EJNMMI Radiopharmacy and Chemistry, 2024):
Several values for one entry are separate records, joined by “and”; a condition that tells them apart may be missing. Equal entries are not always repeated. Values belong to the compound of their own block, whether it stands above or below them.

Tests used:
HCT116 = system: HCT116; design: method as in Wang et al. [2020]; conditions: ref Wang et al. [2020]; cited from earlier work
RKO = system: RKO; design: method as in Wang et al. [2020]; conditions: ref Wang et al. [2020]; cited from earlier work
SH2 domain of STAT3 = conditions: ref Wang et al. [2020]; cited from earlier work
A549 tumor-bearing mice [1] = experiment: In vivo biodistribution; design: species or system BALB/c nude mice
Protocol: (§1) BALB/c nude mice (male, 4 weeks old) and ddY mice (male, 6 weeks old) were purchased from Japan SLC (Shizuoka, Japan) and given free access to food and water. All animal experiments were conducted according to Osaka Medical and Pharmaceutical University guidelines, and the study protocol was approved by the Institutional Experimental Animal Committee (Permission Number: 22-76, AP23-004). To prepare tumor-bearing mice, A549 cells (4 × 10^6 cells/mouse) suspended in culture medium (100 μL) were implanted subcutaneously into the right hind leg of each mouse. Animals with a tumor size of approximately 100 mm^3 (length × width^2 × 1/2) after inoculation with A549 cells were used for in vivo and ex vivo experiments.
(§2) [^18F]FBNAF (115-343 kBq, 100 μL) in 5% DMSO/PBS (−) was intravenously injected into mice. The animals were euthanized under isoflurane anesthesia at 10, 30, 60, and 120 min postinjection, and the tissues of interest were excised and weighed. Radioactivity was measured using a γ-counter. The accumulation of radioactivity was expressed as the percent injected dose per gram tissue (%ID/g) for all tissues excluding the stomach, in which accumulation was expressed as the percent injected dose per organ (%ID). For the blocking study, [^18F]FBNAF (115-360 kBq, 100 μL) in 5% DMSO/PBS (−) was intravenously coinjected with BP-1-102 (3.0 mg/kg, Selleck, Shanghai, China) into mice, and after 30 min, the accumulated radioactivity in the tumor, blood, and muscle were measured. Radioactivity was decay-corrected at the time of administration.

STAT3 = target: T1, STAT3 (Homo sapiens, UniProt P40763); experiment: Ex vivo autoradiography and immunohistochemistry; assay type: in vivo, mouse; conditions: tumor sections, 30 min postinjection, A549 tumor-bearing mice
T1 construct: sections prepared from the excised tumors of A549 tumor-bearing mice at 30 min postinjection of [^18F]FBNAF; from tissue; host or cells: A549 (human lung cancer) xenograft tumour excised from tumour-bearing mice
T1 sequence (P40763 whole entry): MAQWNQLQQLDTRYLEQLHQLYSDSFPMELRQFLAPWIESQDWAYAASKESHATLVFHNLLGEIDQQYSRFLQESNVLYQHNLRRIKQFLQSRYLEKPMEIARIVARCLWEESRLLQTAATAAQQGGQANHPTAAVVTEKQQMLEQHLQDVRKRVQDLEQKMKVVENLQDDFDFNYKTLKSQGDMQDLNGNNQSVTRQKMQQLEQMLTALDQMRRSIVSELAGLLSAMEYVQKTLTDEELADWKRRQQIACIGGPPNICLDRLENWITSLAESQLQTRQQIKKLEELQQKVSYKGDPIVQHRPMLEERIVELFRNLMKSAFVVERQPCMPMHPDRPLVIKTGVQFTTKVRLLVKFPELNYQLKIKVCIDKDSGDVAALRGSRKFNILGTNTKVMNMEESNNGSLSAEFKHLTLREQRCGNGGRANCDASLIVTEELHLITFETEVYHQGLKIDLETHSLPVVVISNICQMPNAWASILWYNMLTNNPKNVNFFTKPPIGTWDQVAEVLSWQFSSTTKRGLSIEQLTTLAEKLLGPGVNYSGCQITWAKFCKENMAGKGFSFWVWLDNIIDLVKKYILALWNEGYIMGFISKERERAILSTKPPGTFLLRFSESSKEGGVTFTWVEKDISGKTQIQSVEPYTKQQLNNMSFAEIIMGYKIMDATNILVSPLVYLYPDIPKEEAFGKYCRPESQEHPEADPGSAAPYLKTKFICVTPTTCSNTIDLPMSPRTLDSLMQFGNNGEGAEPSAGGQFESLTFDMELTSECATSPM
Protocol: Tumors were excised 30 min after the intravenous injection of [^18F]FBNAF (3–6 MBq, 100 μL) and immediately frozen in OCT compound. The frozen tumor was cut into 10 µm thick sections using Cryotome and contacted with a phosphor screen in a cassette overnight. The screen was scanned using an Amersham Typhoon scanner (Cytiva), and the resulting images were analyzed using Image-Quant TL (Cytiva).
For immunohistochemistry, adjacent sections were fixed with cold acetone (− 20℃) for 10 min. After blocking using Blocking One Histo (Nacalai Tesque), the sections were incubated with antibodies against STAT3 (1:200 dilution, #4904) or pSTAT3(Tyr705) (1:200 dilution, #9145) overnight at 4℃. After a rinse, anti-rabbit IgG(H + L) CF555 (1:1000 dilution, SAB4600068, Sigma-Aldrich, St. Louis, MO, USA) was added, followed by incubation for 30 min at room temperature. Nuclear staining was performed by incubation with Hoechst 33,342 (Nacalai Tesque) for 10 min.

A549 tumor-bearing mice [2] = experiment: In vivo blocking study with coinjected BP-1-102; design: species or system BALB/c nude mice
Protocol: as §1, §2

[3] = In vitro stability in mouse plasma; assay type: in vitro ADME, ddY mouse; conditions: 3 h incubation in mouse plasma, 37℃, normal-phase TLC
Protocol: [^18F]FBNAF (152 kBq, 20 μL) in 5% DMSO/PBS ( −) was incubated with ddY mouse plasma (180 μL) at 37℃ for 10, 60, 120, or 180 min. After protein removal using CH3CN (400 μL), the supernatant was filtered through a Cosmonice Filter W and analyzed by TLC (Rf = 0.4, ethyl acetate:hexane = 1:1), followed by radioactivity counting using a γ-counter (2480 Wizard^2, PerkinElmer Japan, Kanagawa, Japan; n = 3). The intact rate (%) was represented as the intact form relative to the total radioactivity.

[4] = blocking group, coinjection of BP-1-102 3.0 mg/kg, 30 min
[5] = control group without BP-1-102, 30 min

Structure (SMILES): Cc1ccc(COc2ccc3c(c2)C(=O)C(=O)C2=C3OC(C)C2)cc1 (centres unmarked) [LYW-6]
IC50 (HCT116): 4.1 µM | IC50 (RKO): 3.8 µM | Kd (SH2 domain of STAT3): 6.6 µM

Blood radioactivity (A549 tumor-bearing mice [1]; 10 min after i.v. injection): 1.0 ± 0.2 %ID/g | Bone radioactivity (A549 tumor-bearing mice [1]; 10 min after i.v. injection): 2.1 ± 0.2 %ID/g | Brain radioactivity (A549 tumor-bearing mice [1]; 10 min after i.v. injection): 1.9 ± 1.1 %ID/g | Colon radioactivity (A549 tumor-bearing mice [1]; 10 min after i.v. injection): 0.8 ± 0.4 %ID/g | Heart radioactivity (A549 tumor-bearing mice [1]; 10 min after i.v. injection): 2.3 ± 0.8 %ID/g | Kidney radioactivity (A549 tumor-bearing mice [1]; 10 min after i.v. injection): 19.5 ± 7.7 %ID/g | Liver radioactivity (A549 tumor-bearing mice [1]; 10 min after i.v. injection): 10.8 ± 2.8 %ID/g | Lung radioactivity (A549 tumor-bearing mice [1]; 10 min after i.v. injection): 4.4 ± 1.0 %ID/g | Muscle radioactivity (A549 tumor-bearing mice [1]; 10 min after i.v. injection): 2.1 ± 0.8 %ID/g | Pancreas radioactivity (A549 tumor-bearing mice [1]; 10 min after i.v. injection): 6.3 ± 2.9 %ID/g | Small intestine radioactivity (A549 tumor-bearing mice [1]; 10 min after i.v. injection): 11.6 ± 5.5 %ID/g | Spleen radioactivity (A549 tumor-bearing mice [1]; 10 min after i.v. injection): 2.7 ± 0.7 %ID/g | Stomach radioactivity (A549 tumor-bearing mice [1]; 10 min after i.v. injection): 0.6 ± 0.3 %ID | Tumor radioactivity (A549 tumor-bearing mice [1]; 10 min after i.v. injection): 1.5 ± 0.3 %ID/g | Tumor/blood ratio (A549 tumor-bearing mice [1]; 10 min after i.v. injection): 1.6 ± 0.3 | Tumor/muscle ratio (A549 tumor-bearing mice [1]; 10 min after i.v. injection): 0.8 ± 0.1 | Blood radioactivity (A549 tumor-bearing mice [1]; 30 min after i.v. injection): 1.0 ± 0.3 %ID/g | Bone radioactivity (A549 tumor-bearing mice [1]; 30 min after i.v. injection): 2.3 ± 0.6 %ID/g | Brain radioactivity (A549 tumor-bearing mice [1]; 30 min after i.v. injection): 0.8 ± 0.1 %ID/g | Colon radioactivity (A549 tumor-bearing mice [1]; 30 min after i.v. injection): 0.7 ± 0.4 %ID/g | Heart radioactivity (A549 tumor-bearing mice [1]; 30 min after i.v. injection): 1.5 ± 0.7 %ID/g | Kidney radioactivity (A549 tumor-bearing mice [1]; 30 min after i.v. injection): 4.5 ± 1.2 %ID/g | Liver radioactivity (A549 tumor-bearing mice [1]; 30 min after i.v. injection): 5.3 ± 1.9 %ID/g | Lung radioactivity (A549 tumor-bearing mice [1]; 30 min after i.v. injection): 3.3 ± 2.0 %ID/g | Muscle radioactivity (A549 tumor-bearing mice [1]; 30 min after i.v. injection): 0.6 ± 0.1 %ID/g | Pancreas radioactivity (A549 tumor-bearing mice [1]; 30 min after i.v. injection): 1.1 ± 0.3 %ID/g | Small intestine radioactivity (A549 tumor-bearing mice [1]; 30 min after i.v. injection): 38.3 ± 5.7 %ID/g | Spleen radioactivity (A549 tumor-bearing mice [1]; 30 min after i.v. injection): 1.6 ± 0.5 %ID/g | Stomach radioactivity (A549 tumor-bearing mice [1]; 30 min after i.v. injection): 3.6 ± 2.8 %ID | Tumor radioactivity (A549 tumor-bearing mice [1]; 30 min after i.v. injection): 1.7 ± 0.4 %ID/g | Tumor/blood ratio (A549 tumor-bearing mice [1]; 30 min after i.v. injection): 2.0 ± 1.0 | Blood radioactivity (A549 tumor-bearing mice [1]; 60 min after i.v. injection): 0.5 ± 0.1 %ID/g | Bone radioactivity (A549 tumor-bearing mice [1]; 60 min after i.v. injection): 1.5 ± 0.5 %ID/g | Brain radioactivity (A549 tumor-bearing mice [1]; 60 min after i.v. injection): 0.5 ± 0.0 %ID/g | Colon radioactivity (A549 tumor-bearing mice [1]; 60 min after i.v. injection): 11.0 ± 3.5 %ID/g | Heart radioactivity (A549 tumor-bearing mice [1]; 60 min after i.v. injection): 0.7 ± 0.1 %ID/g | Kidney radioactivity (A549 tumor-bearing mice [1]; 60 min after i.v. injection): 0.9 ± 0.3 %ID/g | Liver radioactivity (A549 tumor-bearing mice [1]; 60 min after i.v. injection): 2.2 ± 0.3 %ID/g | Lung radioactivity (A549 tumor-bearing mice [1]; 60 min after i.v. injection): 1.2 ± 0.0 %ID/g | Muscle radioactivity (A549 tumor-bearing mice [1]; 60 min after i.v. injection): 0.5 ± 0.2 %ID/g | Pancreas radioactivity (A549 tumor-bearing mice [1]; 60 min after i.v. injection): 0.5 ± 0.1 %ID/g | Small intestine radioactivity (A549 tumor-bearing mice [1]; 60 min after i.v. injection): 48.4 ± 7.4 %ID/g | Spleen radioactivity (A549 tumor-bearing mice [1]; 60 min after i.v. injection): 0.9 ± 0.1 %ID/g | Stomach radioactivity (A549 tumor-bearing mice [1]; 60 min after i.v. injection): 1.4 ± 1.4 %ID | Tumor radioactivity (A549 tumor-bearing mice [1]; 60 min after i.v. injection): 0.9 ± 0.3 %ID/g | Tumor/blood ratio (A549 tumor-bearing mice [1]; 60 min after i.v. injection): 2.0 ± 0.8 | Tumor/muscle ratio (A549 tumor-bearing mice [1]; 60 min after i.v. injection): 2.4 ± 1.2 | Blood radioactivity (A549 tumor-bearing mice [1]; 120 min after i.v. injection): 0.3 ± 0.0 %ID/g | Bone radioactivity (A549 tumor-bearing mice [1]; 120 min after i.v. injection): 1.9 ± 0.2 %ID/g | Brain radioactivity (A549 tumor-bearing mice [1]; 120 min after i.v. injection): 0.4 ± 0.1 %ID/g | Colon radioactivity (A549 tumor-bearing mice [1]; 120 min after i.v. injection): 44.4 ± 16.3 %ID/g | Heart radioactivity (A549 tumor-bearing mice [1]; 120 min after i.v. injection): 0.7 ± 0.2 %ID/g | Kidney radioactivity (A549 tumor-bearing mice [1]; 120 min after i.v. injection): 0.5 ± 0.2 %ID/g | Liver radioactivity (A549 tumor-bearing mice [1]; 120 min after i.v. injection): 1.6 ± 0.8 %ID/g | Lung radioactivity (A549 tumor-bearing mice [1]; 120 min after i.v. injection): 1.0 ± 0.3 %ID/g | Muscle radioactivity (A549 tumor-bearing mice [1]; 120 min after i.v. injection): 0.5 ± 0.1 %ID/g | Pancreas radioactivity (A549 tumor-bearing mice [1]; 120 min after i.v. injection): 0.6 ± 0.1 %ID/g | Small intestine radioactivity (A549 tumor-bearing mice [1]; 120 min after i.v. injection): 17.8 ± 2.2 %ID/g | Spleen radioactivity (A549 tumor-bearing mice [1]; 120 min after i.v. injection): 0.8 ± 0.3 %ID/g | Stomach radioactivity (A549 tumor-bearing mice [1]; 120 min after i.v. injection): 0.8 ± 1.0 %ID | Tumor radioactivity (A549 tumor-bearing mice [1]; 120 min after i.v. injection): 0.9 ± 0.3 %ID/g | Tumor/blood ratio (A549 tumor-bearing mice [1]; 120 min after i.v. injection): 2.6 and 2.6 ± 0.8 | Tumor/muscle ratio (A549 tumor-bearing mice [1]; 120 min after i.v. injection): 1.9 ± 0.9 | tumor-to-blood ratio (A549 tumor-bearing mice [2]; [4]): 1.1 ± 0.3 | tumor-to-muscle ratio (A549 tumor-bearing mice [2]; [4]): 2.3 ± 1.2 | Tumor radioactivity (A549 tumor-bearing mice [2]; blocking group, coinjection of BP-1-102 3.0 mg/kg, 30 min after administration): 1.0 ± 0.3 % ID/g | radioactivity in blood and muscle, effect of coinjection of the inhibitor (A549 tumor-bearing mice [2]; coinjection of BP-1-102 3.0 mg/kg, 30 min): negligibly affected | tumor-to-blood ratio (A549 tumor-bearing mice [2]; [5]): 2.0 ± 1.0 | tumor-to-muscle ratio (A549 tumor-bearing mice [2]; [5]): 2.6 ± 0.3 | radioactivity in an intact form (intact rate) [3]: more than 85%
Structure (SMILES): CC1CC2=C(O1)c1ccc(OCc3ccc([18F])cc3)cc1C(=O)C2=O (centres unmarked) [[^18F]FBNAF, 7-(4-[^18F]Fluoro-benzyloxy)-2-methyl-2,3-dihydro-naphtho[1,2-b]furan-4,5-dione]
intratumoral radioactivity distribution versus STAT3 expression (STAT3): almost corresponded to the STAT3 expression profile
